Source: ChEMBL document CHEMBL1201862, “PubChem BioAssay data set” (2004)
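Assay format: 96-well plates, 48-hour exposure. At the GI50, growth is halved.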 The source made the active and inactive calls. Cut-off read from the data, not from the text of the source: active = GI50 up to about 1.1 µM and inactive = higher.

Columns and labels:
Assay in all cases: NCI anticancer screen, dose series, 48 h
LOX IMVI = tested on: LOX IMVI
NCI-H460 = tested on: NCI-H460
786-0 = tested on: 786-0
SF-295 = tested on: SF-295
PC-3 = tested on: PC-3
SK-MEL-5 = tested on: SK-MEL-5
HCC 2998 = tested on: HCC 2998
NCI-H226 = tested on: NCI-H226
SK-OV-3 = tested on: SK-OV-3
NCI-H23 = tested on: NCI-H23
HCT-15 = tested on: HCT-15
ACHN = tested on: ACHN
DU-145 = tested on: DU-145
UACC-257 = tested on: UACC-257
CAKI-1 = tested on: CAKI-1
Malme-3M = tested on: Malme-3M
OVCAR-4 = tested on: OVCAR-4
A498 = tested on: A498
K562 = tested on: K562
MDA-MB-231 = tested on: MDA-MB-231
MDA-MB-435 = tested on: MDA-MB-435
CCRF-CEM = tested on: CCRF-CEM
RPMI-8226 = tested on: RPMI-8226
SN12C = tested on: SN12C
SNB-19 = tested on: SNB-19
TK-10 = tested on: TK-10
MDA-N = tested on: MDA-N
RXF 393 = tested on: RXF 393
EKVX = tested on: EKVX
HT-29 = tested on: HT-29
OVCAR-8 = tested on: OVCAR-8
HL-60 = tested on: HL-60
NCI-H522 = tested on: NCI-H522
SF-268 = tested on: SF-268
MCF7 = tested on: MCF7
HCT-116 = tested on: HCT-116
MOLT-4 = tested on: MOLT-4
NCI/ADR-RES = tested on: NCI/ADR-RES
SK-MEL-28 = tested on: SK-MEL-28
IGROV-1 = tested on: IGROV-1
A549 = tested on: A549
HOP-62 = tested on: HOP-62
SR = tested on: SR
T47D = tested on: T47D
COLO 205 = tested on: COLO 205
SW-620 = tested on: SW-620
KM12 = tested on: KM12
SF-539 = tested on: SF-539
HOP-92 = tested on: HOP-92
OVCAR-5 = tested on: OVCAR-5
Hs-578T = tested on: Hs-578T
OVCAR-3 = tested on: OVCAR-3
SK-MEL-2 = tested on: SK-MEL-2
SNB-75 = tested on: SNB-75
M14 = tested on: M14
UO-31 = tested on: UO-31
U-251 = tested on: U-251
BT-549 = tested on: BT-549
UACC-62 = tested on: UACC-62

## O=C1c2c(ccc3c2CCC3)CC12Cc1cc3c(cc1C2)CCC3
LOX IMVI
  GI50: > 100 µM (inactive)
NCI-H460
  GI50: > 100 µM (inactive)
786-0
  GI50: > 100 µM (inactive)
SF-295
  GI50: > 100 µM (inactive)
PC-3
  GI50: > 100 µM (inactive)
SK-MEL-5
  GI50: > 100 µM (inactive)
HCC 2998
  GI50: > 100 µM (inactive)
NCI-H226
  GI50: > 100 µM (inactive)
SK-OV-3
  GI50: > 100 µM (inactive)
NCI-H23
  GI50: > 100 µM (inactive)
HCT-15
  GI50: > 100 µM
ACHN
  GI50: > 100 µM (inactive)
DU-145
  GI50: > 100 µM (inactive)
UACC-257
  GI50: > 100 µM (inactive)
CAKI-1
  GI50: > 100 µM (inactive)
Malme-3M
  GI50: 20.1 µM (inactive)
OVCAR-4
  GI50: > 100 µM (inactive)
A498
  GI50: > 100 µM (inactive)
K562
  GI50: > 100 µM (inactive)
MDA-MB-231
  GI50: > 100 µM (inactive)
MDA-MB-435
  GI50: > 100 µM (inactive)
CCRF-CEM
  GI50: > 100 µM (inactive)
RPMI-8226
  GI50: > 100 µM (inactive)
SN12C
  GI50: > 100 µM (inactive)
SNB-19
  GI50: > 100 µM (inactive)
TK-10
  GI50: > 100 µM (inactive)
MDA-N
  GI50: > 100 µM (inactive)
RXF 393
  GI50: > 100 µM (inactive)
EKVX
  GI50: > 100 µM (inactive)
HT-29
  GI50: > 100 µM (inactive)
OVCAR-8
  GI50: > 100 µM (inactive)
HL-60
  GI50: > 100 µM (inactive)
NCI-H522
  GI50: > 100 µM (inactive)
SF-268
  GI50: > 100 µM (inactive)
MCF7
  GI50: > 100 µM (inactive)
HCT-116
  GI50: > 100 µM (inactive)
MOLT-4
  GI50: > 100 µM (inactive)
NCI/ADR-RES
  GI50: > 100 µM (inactive)
SK-MEL-28
  GI50: > 100 µM (inactive)
IGROV-1
  GI50: > 100 µM (inactive)
A549
  GI50: > 100 µM (inactive)
HOP-62
  GI50: > 100 µM (inactive)
SR
  GI50: > 100 µM (inactive)
T47D
  GI50: > 100 µM (inactive)
COLO 205
  GI50: > 100 µM (inactive)
SW-620
  GI50: > 100 µM (inactive)
KM12
  GI50: > 100 µM (inactive)
SF-539
  GI50: > 100 µM (inactive)
HOP-92
  GI50: > 100 µM (inactive)
OVCAR-5
  GI50: > 100 µM (inactive)
Hs-578T
  GI50: > 100 µM (inactive)
OVCAR-3
  GI50: > 100 µM (inactive)
SK-MEL-2
  GI50: > 100 µM (inactive)
SNB-75
  GI50: 87.7 µM (inactive)
M14
  GI50: > 100 µM (inactive)
UO-31
  GI50: > 100 µM (inactive)
U-251
  GI50: 70.3 µM (inactive)

## O=C(CCC1OCCO1)Nc1cc(NCc2ccccc2)ccc1OCc1ccccc1
LOX IMVI
  GI50: 33.7 µM (inactive)
NCI-H460
  GI50: 39.1 µM (inactive)
786-0
  GI50: > 100 µM (inactive)
SF-295
  GI50: 30.2 µM (inactive)
SK-MEL-5
  GI50: 18.4 µM (inactive)
HCC 2998
  GI50: 33 µM (inactive)
NCI-H226
  GI50: 38.4 µM (inactive)
SK-OV-3
  GI50: 68.5 µM (inactive)
NCI-H23
  GI50: 31.7 µM (inactive)
HCT-15
  GI50: 35.1 µM
ACHN
  GI50: 33.5 µM (inactive)
DU-145
  GI50: 50.5 µM (inactive)
UACC-257
  GI50: 20.2 µM (inactive)
CAKI-1
  GI50: 20.7 µM (inactive)
Malme-3M
  GI50: 20.6 µM (inactive)
OVCAR-4
  GI50: 31.8 µM (inactive)
A498
  GI50: 30.5 µM (inactive)
K562
  GI50: 28.9 µM (inactive)
MDA-MB-231
  GI50: 42 µM (inactive)
MDA-MB-435
  GI50: 23.6 µM (inactive)
CCRF-CEM
  GI50: 17 µM (inactive)
RPMI-8226
  GI50: 20.1 µM (inactive)
SN12C
  GI50: 46.8 µM (inactive)
SNB-19
  GI50: 40.3 µM (inactive)
TK-10
  GI50: 26.6 µM (inactive)
RXF 393
  GI50: 28.8 µM (inactive)
EKVX
  GI50: 21.2 µM (inactive)
BT-549
  GI50: 38.5 µM (inactive)
HT-29
  GI50: 27.7 µM (inactive)
OVCAR-8
  GI50: 18.9 µM (inactive)
HL-60
  GI50: 38.5 µM (inactive)
NCI-H522
  GI50: 23.7 µM (inactive)
SF-268
  GI50: 63.8 µM (inactive)
UACC-62
  GI50: 28.1 µM (inactive)
MCF7
  GI50: 33.6 µM (inactive)
HCT-116
  GI50: 48.9 µM (inactive)
MOLT-4
  GI50: 20.5 µM (inactive)
NCI/ADR-RES
  GI50: 43.1 µM (inactive)
SK-MEL-28
  GI50: 64.7 µM (inactive)
IGROV-1
  GI50: 41.6 µM (inactive)
A549
  GI50: 30.6 µM (inactive)
HOP-62
  GI50: > 100 µM (inactive)
SR
  GI50: 27.9 µM (inactive)
T47D
  GI50: 69.5 µM (inactive)
COLO 205
  GI50: 22.3 µM (inactive)
SW-620
  GI50: 42.1 µM (inactive)
KM12
  GI50: 30.1 µM (inactive)
SF-539
  GI50: 30.4 µM (inactive)
HOP-92
  GI50: 17.8 µM (inactive)
OVCAR-5
  GI50: 46.9 µM (inactive)
Hs-578T
  GI50: 34.3 µM (inactive)
SK-MEL-2
  GI50: 21 µM (inactive)
SNB-75
  GI50: 32.5 µM (inactive)
M14
  GI50: 59.6 µM (inactive)
UO-31
  GI50: 33.9 µM (inactive)
U-251
  GI50: 37.1 µM (inactive)
